Experimental data reported in patent US20230133587A1, “Amino Acid Mediated Gene Delivery and Its Uses” (CHINESE INSTITUTE FOR BRAIN RESEARCH, BEIJING, priority 2020, published 2023).

System: astrocytes
Test: Other amino acids promote uptake of plasmid vectors by astrocytes
Type: in vivo
Details: amino acid solution as vehicle
Experimental: Other amino acids, including serine, alanine, histidine, γ-aminobutyric acid, proline, lysine, and threonine, are tested. […] From the analysis of the transfection efficiency of various amino acids, it was seen that, except for alanine, the efficiency of L-type amino acids is much higher than that of D-type amino acids (please see FIG. 11).
Histidine, lysine, and arginine, which are also positively charged, are significant differences in delivery efficiency, and gene delivery efficiency of threonine, serine lysine, etc. also has vast differences.

SMILES | uptake of plasmid vectors by astrocytes
C[C@@H](N)C(=O)O [D-Alanine] | promote astrocyte uptake of plasmid vector(s)
N[C@@H](Cc1c[nH]cn1)C(=O)O [L-Histidine] | promote astrocyte uptake of plasmid vector(s)
N[C@@H](CO)C(=O)O [L-Serine] | promote astrocyte uptake of plasmid vector(s)
C[C@@H](O)[C@H](N)C(=O)O [L-Threonine] | promote astrocyte uptake of plasmid vector(s)
C[C@H](N)C(=O)O [alanine] | can efficiently promote astrocytes to take up plasmid vectors
N[C@@H](Cc1c[nH]cn1)C(=O)O [histidine] | can efficiently promote astrocytes to take up plasmid vectors
NCCCC[C@H](N)C(=O)O [lysine] | can efficiently promote astrocytes to take up plasmid vectors
O=C(O)[C@@H]1CCCN1 [proline] | can efficiently promote astrocytes to take up plasmid vectors
N[C@@H](CO)C(=O)O [serine] | can efficiently promote astrocytes to take up plasmid vectors
C[C@@H](O)[C@H](N)C(=O)O [threonine] | can efficiently promote astrocytes to take up plasmid vectors
NCCCC(=O)O [γ-aminobutyric acid] | can efficiently promote astrocytes to take up plasmid vectors
